# Assay results from patent publication US20080058330A1, “Compounds and Combinations Thereof for Inhibiting Beta-Amyloid Production and Methods of Use Thereof” (Roskamp Research LLC, priority 2006, published 2008).
# Key:
# [1] = test system: 7W WT APP751 CHO cells; assay: Screening of dihydropyridine compounds of Table 2, Aβ1-40 and Aβ1-42 ELISA (Example 5); type: cell-based, Chinese hamster; conditions: for concentration of Aβ1-40 or Aβ1-42 compared to control: 3, 10, 30 and 100 μM, 24 hours (FIGS. 22A, 22B, 23A, 23B); for concentration of Aβ1-40 compared to control: 3 and 10 μM, 24 hours (FIG. 24)
# Protocol: (§1) Chinese hamster ovary (CHO) cells, stably transfected with human APP751 (7W WT APP751 CHO cells) were used. See, e.g., Koo and Squazzo, J. Biol. Chem., Vol. 269, Issue 26, 17386-17389, July, 1994. The cells were maintained in DMEM medium supplemented with 10% fetal bovine serum and IX mixture of penicillin/streptomycin/fungizone/glutamine mixture (Cambrex, Md.) geneticin as selecting agent in 75 cm^2 cell culture flasks.
# (§2) The 7W WT APP751 CHO cells were plated in 24-well cell culture plates in quadruplicate, containing 1 ml of culture medium, and treated with various calcium channel blocker compounds for 4 hours, 24 hours or 48 hours at 37° C. and 5% CO2. All test compounds were diluted in dimethyl sulfoxide (DMSO) before being added to the cultured confluent 7W WT APP751 CHO cells. The culture medium was collected and diluted 5-fold for the 4 hours assay and 50-fold for the 24 hour assay before being assayed by ELISAs for Aβ1-40 and Aβ1-42, respectively. Concentrations of Aβ1-40 and Aβ1-42, expressed in pg/ml, were determined using commercially available ELISAs (Biosource, Calif.) in a colorimetric assay using labeled antibodies detected spectrophotometrically.
# The screening of dihydropyridine compounds was conducted according to the procedure described in Example 1. Each compound was added to confluent cells to a final concentration of 3, 10, 30 or 100 μM and tested. Each of these compounds was added to confluent cells to a final concentration of 3 μM (noted as “C” in FIG. 24) or 10 μM (noted as “B” in FIG. 24).
# [2] = test system: 7W WT APP751 CHO cells; assay: Measurement of Aβ1-40 and Aβ1-42 by ELISA after treatment with calcium channel blockers (Example 1); type: cell-based, Chinese hamster
# Protocol: as §1
# as §2, with “All test compounds were diluted in dimethyl sulfoxide (DMSO) before being added to the cultured confluent 7W WT APP751 CHO cells.” left out
# [3] = test system: Tg APPsw mice; conditions: Tg APPsw mice given the NSAID; correlating with decreased microglial activation; cited from earlier work
# [4] = 30 μM, cells plated at low density, 24 hours (FIG. 1C)
# [5] = 30 μM, cells plated at low density, 48 hours (FIG. 1D)
smiles,measurement,setting,value
COCCOC(=O)C1=C(C)NC(C)=C(C(=O)OCCOC)C1c1ccccc1Cl [Example 2-19],concentration of Aβ1-40 or Aβ1-42 compared to control,[1],decreased
"CCOC(=O)C1=C(C)NC(C)=C(C(=O)OCC)C1c1ccccc1Br [Example 2-23, Diethyl 4-(2-bromophenyl)-1,4-dihydro-2,6-dimethylpyridine-3,5-dicarboxylate]",concentration of Aβ1-40 or Aβ1-42 compared to control,[1],decreased
"CCOC(=O)C1=C(C)NC(C)=C(C(=O)OCC)C1c1ccccc1F [Example 2-27, Diethyl 4-(2-fluorophenyl)-1,4-dihydro-2,6-dimethylpyridine-3,5-dicarboxylate]",concentration of Aβ1-40 or Aβ1-42 compared to control,[1],decreased
same,melting point,,151 to 152.5 °C
"CC1=C(C(=O)OC(C)(C)C)C(c2ccccc2F)C(C(=O)OC(C)(C)C)=C(C)N1 [Example 2-28, Di-tert-butyl 4-(2-fluorophenyl)-1,4-dihydro-2,6-dimethylpyridine-3,5-dicarboxylate]",concentration of Aβ1-40 or Aβ1-42 compared to control,[1],decreased
"CCOC(=O)C1=C(C)NC(C)=C(C(=O)OCC)C1c1ccccc1[N+](=O)[O-] [Example 2-29, Diethyl 1,4-dihydro-2,6-dimethyl-4-(2-nitrophenyl)pyridine-3,5-dicarboxylate]",concentration of Aβ1-40 or Aβ1-42 compared to control,[1],decreased
"CC1=C(C(=O)OC(C)(C)C)C(c2ccccc2Br)C(C(=O)OC(C)(C)C)=C(C)N1 [Example 2-32, Di-tert-butyl 4-(2-bromophenyl)-1,4-dihydro-2,6-dimethylpyridine-3,5-dicarboxylate]",concentration of Aβ1-40 or Aβ1-42 compared to control,[1],decreased
"CC1=C(C(=O)OC(C)(C)C)C(c2ccccc2[N+](=O)[O-])C(C(=O)OC(C)(C)C)=C(C)N1 [Example 2-33, Di-tert-butyl 1,4-dihydro-2,6-dimethyl-4-(2-nitrophenyl)pyridine-3,5-dicarboxylate]",concentration of Aβ1-40 or Aβ1-42 compared to control,[1],decreased
CCOC(=O)C1=C(C)NC(C)=C(C(=O)OCC)C1c1cccc(F)c1F [Example 3-22],concentration of Aβ1-40 compared to control,[1],decreased
CC1=C(C(=O)OC(C)(C)C)C(c2cccc(F)c2F)C(C(=O)OC(C)(C)C)=C(C)N1 [Example 3-23],concentration of Aβ1-40 compared to control,[1],decreased
CCOC(=O)C1=C(C)NC(C)=C(C(=O)OCC)C1c1ccc(Br)cc1F [Example 3-33],concentration of Aβ1-40 compared to control,[1],decreased
"CC1=C(C(=O)OC(C)(C)C)C(c2ccc(Br)cc2F)C(C(=O)OC(C)(C)C)=C(C)N1 [Example 3-34, Di-tert-butyl 4-(4-bromo-2-fluorophenyl)-1,4-dihydro-2,6-dimethylpyridine-3,5-dicarboxylate]",concentration of Aβ1-40 compared to control,[1],decreased
COCCOC(=O)C1=C(C)NC(C)=C(C(=O)OCCOC)C1c1cccc(Br)c1 [Example 3-37],concentration of Aβ1-40 compared to control,[1],decreased
"COCCOC(=O)C1=C(C)NC(C)=C(C(=O)OCCOC)C1c1ccc(Br)cc1 [Example 3-38, Bis(2-methoxyethyl) 4-(4-bromophenyl)-1,4-dihydro-2,6-dimethylpyridine-3,5-dicarboxylate]",concentration of Aβ1-40 compared to control,[1],decreased
"CCOC(=O)C1=C(C)NC(C)=C(C(=O)OCC)C1c1cc(Br)ccc1F [Example 3-41, Diethyl 4-(5-bromo-2-fluorophenyl)-1,4-dihydro-2,6-dimethylpyridine-3,5-dicarboxylate]",concentration of Aβ1-40 compared to control,[1],decreased
CC1=C(C(=O)OC(C)(C)C)C(c2cc(Br)ccc2F)C(C(=O)OC(C)(C)C)=C(C)N1 [Example 3-42],concentration of Aβ1-40 compared to control,[1],decreased
Clc1ccccc1C(c1ccccc1)(c1ccccc1)n1ccnc1 [clotrimazole],concentration of Aβ1-40 compared to controls,[2]; 20 μM (FIG. 4),significantly decreased
same,concentration of total β-amyloid compared to controls,[2]; 20 μM (FIG. 4),significantly decreased
CC(C)Cc1ccc(C(C)C(=O)O)cc1 (stereo not drawn) [ibuprofen],"β-amyloid deposits, astrocytosis, and dystrophic neurites",[3],reduction
CN(C)C(=O)C(CCN1CCC(O)(c2ccc(Cl)cc2)CC1)(c1ccccc1)c1ccccc1 [loperamide],concentration of Aβ1-40 compared to controls,[2]; 30 μM (FIG. 4),significantly decreased
same,concentration of Aβ1-42 compared to controls,[2]; 30 μM (FIG. 4),significantly decreased
same,concentration of total β-amyloid compared to controls,[2]; 30 μM (FIG. 4),significantly decreased
COC(=O)C1=C(C#N)NC(C)=C(C(=O)OC(C)C)C1c1cccc([N+](=O)[O-])c1 (stereo not drawn) [nilvadipine],concentration of Aβ1-40 compared to controls,[2]; 30 μM (FIG. 3),significantly decreased
same,concentration of total β-amyloid compared to controls,[2]; 30 μM (FIG. 3),significantly decreased
same,concentration of Aβ1-40 compared to controls,"[2]; 30 μM, 24 hours (FIG. 1B)",significantly decreased
same,concentration of Aβ1-40 compared to controls,[2]; [4],significantly decreased
same,concentration of Aβ1-40 compared to controls,[2]; [5],significantly decreased
CCOC(=O)C1=C(C)NC(C)=C(C(=O)OC)C1c1cccc([N+](=O)[O-])c1 (stereo not drawn) [nitrendipine],concentration of Aβ1-40 compared to controls,[2]; 30 μM (FIG. 3),significantly decreased
same,concentration of total β-amyloid compared to controls,[2]; 30 μM (FIG. 3),significantly decreased
same,concentration of Aβ1-40 compared to controls,[2]; [4],significantly decreased
same,concentration of Aβ1-40 compared to controls,[2]; [5],significantly decreased
"COc1ccc2cc1Oc1ccc(cc1)C[C@H]1c3cc(c(OC)cc3CCN1C)Oc1c(OC)c(OC)cc3c1[C@H](C2)N(C)CC3 [tetrandine, tetrandrine]",concentration of Aβ1-40 compared to controls,[2]; 5 μM (FIG. 4),significantly decreased
same,concentration of total β-amyloid compared to controls,[2]; 5 μM (FIG. 4),significantly decreased
same,concentration of Aβ1-40 compared to controls,[2]; 10 μM (FIG. 4),significantly decreased
same,concentration of total β-amyloid compared to controls,[2]; 10 μM (FIG. 4),significantly decreased
same,concentration of Aβ1-40 compared to controls,[2]; 20 μM (FIG. 4),significantly decreased
same,concentration of total β-amyloid compared to controls,[2]; 20 μM (FIG. 4),significantly decreased
same,concentration of Aβ1-40 compared to controls,[2]; 30 μM (FIG. 4),significantly decreased
same,concentration of total β-amyloid compared to controls,[2]; 30 μM (FIG. 4),significantly decreased
CC(C)(C)c1cc(C=C(C#N)C#N)cc(C(C)(C)C)c1O [tyrphostin A9],concentration of Aβ1-40 compared to controls,[2]; 20 μM (FIG. 2),significantly decreased
same,concentration of Aβ1-42 compared to controls,[2]; 20 μM (FIG. 2),significantly decreased
same,concentration of total β-amyloid compared to controls,[2]; 20 μM (FIG. 2),significantly decreased
